Structures are written as SMILES.

We go through twelve compounds from patent publication US8937077B2, “Bicyclic diamines as janus kinase inhibitors” (Merck Sharp & Dohme Corp., priority 2010, dated 2015).

One assay deals with T1, Jak1 (Homo sapiens, UniProt P23458).
T1 construct: using a recombinant purified GST-tagged catalytic domain for each enzyme; GST; purchased Invitrogen M4290
T1 sequence (P23458 875-1153 limits assumed): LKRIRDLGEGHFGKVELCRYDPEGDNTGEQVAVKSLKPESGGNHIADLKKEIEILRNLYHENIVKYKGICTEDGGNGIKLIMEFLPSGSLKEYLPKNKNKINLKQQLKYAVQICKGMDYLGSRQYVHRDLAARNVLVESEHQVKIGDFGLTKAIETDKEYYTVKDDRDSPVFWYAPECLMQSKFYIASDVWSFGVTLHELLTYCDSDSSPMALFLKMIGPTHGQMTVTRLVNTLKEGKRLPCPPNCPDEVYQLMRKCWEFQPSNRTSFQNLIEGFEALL
Description: Jak Biochemical HTRF Assay (Jak1). Conditions: IC50 class, recombinant GST-tagged catalytic domain, read-out: Jak1 activity. Put shortly: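 Recombinant GST-tagged Jak1 catalytic domain was preincubated with compound and peptide substrate for 30 min at room temperature, and the reaction was then started with ATP and run 120 min. Buffer contained 2 mM DTT and 0.05% BSA. Read-out was HTRF (665/615 nm) with Eu-pY20 antibody and streptavidin-Dylight, and IC50 values came from 4-parameter fits of percent inhibition.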
On the technique in general: Time-resolved FRET reads energy transfer from a long-lived donor to a nearby acceptor.
For `O=C(CO)N1CCCC2C1CCN2c1ncnc2[nH]ccc12` [Example 17, (3aS,7aS and 3aR,7aR) 2-hydroxy-1-[1-(7H-pyrrolo[2,3-d]pyrimidin-4-yl)octahydro-4H-pyrrolo[3,2-b]pyridine-4-yl]ethanone], the IC50 was in the range of 100 to 1000 nM.

With `CO[C@](C(=O)N1CCC[C@@H]2[C@H]1CCN2c1ncnc2[nH]ccc12)(c1ccccc1)C(F)(F)F` [Example 18, (2S)-3,3,3-trifluoro-2-methoxy-2-phenyl-1-[(3aR,7aR)-1-(7H-pyrrolo[2,3-d]pyrimidin-4-yl)octahydro-4H-pyrrolo[3,2-b]pyridine-4-yl]propan-1 one], the IC50 fell in the range of 100 to 1000 nM.

Turning to `CO[C@@](C(=O)N1CCC[C@@H]2[C@H]1CCN2c1ncnc2[nH]ccc12)(c1ccccc1)C(F)(F)F` [Example 19, (2R)-3,3,3-trifluoro-2-methoxy-2-phenyl-1-[(3aR,7aR)-1-(7H-pyrrolo[2,3-d]pyrimidin-4-yl)octahydro-4H-pyrrolo[3,2-b]pyridine-4-yl]propan-1-one], the IC50 is 10 to 100 nM.

For `CC1CCN(Cc2ccccc2)C2CCN(c3ncnc4[nH]ccc34)C12` [Example 21, (3aS,7S,7aS and 3aR,7R,7aR) 4-(4-benzyl-7-methyloctahydro-1H-pyrrolo[3,2-b]pyridin-1-yl)-7H-pyrrolo[2,3-d]pyrimidine], the IC50 lay in the range of 10 to 100 nM.

Regarding `CC1CCN(C(=O)CC#N)C2CCN(c3ncnc4[nH]ccc34)C12` [Example 22, (3aS,7S,7aS and 3aR,7R,7aR) 3-[7-methyl-1-(7H-pyrrolo[2,3-d]pyrimidin-4-yl)octahydro-4H-pyrrolo[3,2-b]pyridin-4-yl]-3-oxopropanenitrile], the IC50 was in the range of 100 to 1000 nM.

For the compound `COC(=O)c1ccc(CNC(=O)N2CCC[C@@H]3[C@H]2CCN3c2ncnc3[nH]ccc23)cc1` [Example 23, methyl 4-[({[(3aR,7aR)-1-(7H-pyrrolo[2,3-d]pyrimidin-4-yl)octahydro-4H-pyrrolo[3,2-b]-pyridine-4-yl]carbonyl}amino)methyl]benzoate], the IC50 was 10 to 100 nM.

On to `COC(=O)c1ccc(CN(C)C(=O)N2CCC[C@@H]3[C@H]2CCN3c2ncnc3[nH]ccc23)cc1` [Example 24, methyl 4-[(methyl{[(3aR,7aR)-1-(7H-pyrrolo[2,3-d]pyrimidin-4-yl)octahydro-4H-pyrrolo[3,2-b]-pyridin-4-yl]carbonyl}amino)methyl]benzoate], for which the IC50 lay in the range of 1 to 10 nM.

Regarding `O=C(O)c1ccc(CNC(=O)N2CCC[C@@H]3[C@H]2CCN3c2ncnc3[nH]ccc23)cc1` [Example 25, 4-[({[(3aR,7aR)-1-(7H-pyrrolo[2,3-d]pyrimidin-4-yl)octahydro-4H-pyrrolo[3,2-b]pyridin-4-yl]carbonyl}amino)methyl]benzoic acid], the IC50 was in the range of 100 to 1000 nM.

On to `COC(=O)c1ccc(CCC(=O)N2CCC[C@@H]3[C@H]2CCN3c2ncnc3[nH]ccc23)cc1` [Example 26, methyl 4-{3-oxo-3-[(3aR,7aR)-1-(7H-pyrrolo[2,3-d]pyrimidin-4-yl)octahydro-4H-pyrrolo[3,2-b]pyridine-4-yl]propyl}benzoate], for which the IC50 is 10 to 100 nM.

`O=C(O)c1ccc(CCC(=O)N2CCC[C@@H]3[C@H]2CCN3c2ncnc3[nH]ccc23)cc1` [Example 27, 4-{3-oxo-3-[(3aR,7aR)-1-(7H-pyrrolo[2,3-d]pyrimidin-4-yl)octahydro-4H-pyrrolo[3,2-b]pyridin-4-yl]propyl}benzoic acid]: the IC50 was 10 to 100 nM.

On to `O=C(O)c1ccc(CCOC(=O)N2CCC[C@@H]3[C@H]2CCN3c2ncnc3[nH]ccc23)cc1` [Example 28, 4-[2-({[(3aR,7aR)-1-(7H-pyrrolo[2,3-d]pyrimidin-4-yl)octahydro-4H-pyrrolo[3,2-b]pyridin-4-yl]carbonyl}oxy)ethyl]benzoic acid], for which the IC50 lay in the range of 100 to 1000 nM.

Still in this assay, the particulars now being: Jak1 activity, IC50 class, recombinant GST-tagged catalytic domain.
As for `CC1CCN(C(=O)OCc2ccccc2)C2CCN(c3ncnc4[nH]ccc34)C12` [Example 20, (3aS,7S,7aS and 3aR,7R,7aR) benzyl 7-methyl-1-(7H-pyrrolo[2,3-d]pyrimidin-4-yl)octahydro-4H-pyrrolo[3,2-b]pyridine-4-carboxylate], the IC50 is 10 to 100 nM.

The same assay, now with this note: Representative IC50 values, recombinant GST-tagged catalytic domain, 31.8 μM ATP.
As for `CC1CCN(C(=O)OCc2ccccc2)C2CCN(c3ncnc4[nH]ccc34)C12` [Example 20, (3aS,7S,7aS and 3aR,7R,7aR) benzyl 7-methyl-1-(7H-pyrrolo[2,3-d]pyrimidin-4-yl)octahydro-4H-pyrrolo[3,2-b]pyridine-4-carboxylate], the IC50 worked out at 12 nM.

The same assay, now with this note: recombinant GST-tagged catalytic domain, 31.8 μM ATP, read-out: Representative IC50 values.
In the case of `COC(=O)c1ccc(CNC(=O)N2CCC[C@@H]3[C@H]2CCN3c2ncnc3[nH]ccc23)cc1` [Example 23, methyl 4-[({[(3aR,7aR)-1-(7H-pyrrolo[2,3-d]pyrimidin-4-yl)octahydro-4H-pyrrolo[3,2-b]-pyridine-4-yl]carbonyl}amino)methyl]benzoate], the IC50 amounted to 39 nM.
